Read-outs that look alike come from different tables or passages of the source. Square brackets hold non-standard residues; d marks the D form. Peptide text beside a SMILES is read from it. * marks the point of attachment. 2Pal = N[C@@H](Cc1ccccn1)C(=O)O; 2Thi = N[C@@H](Cc1cccs1)C(=O)O; Tle = CC(C)(C)[C@H](N)C(=O)O; Bn = c1ccc(C*)cc1; Ms = CS(=O)(=O)*
Assays:
Assay type in all cases: biochemical
[1] = target: T1, Recombinant human calpain I (Homo sapiens, UniProt P07384); assay: Inhibition of calpain I activity
T1 construct: made in house
T1 sequence (P07384 1-714): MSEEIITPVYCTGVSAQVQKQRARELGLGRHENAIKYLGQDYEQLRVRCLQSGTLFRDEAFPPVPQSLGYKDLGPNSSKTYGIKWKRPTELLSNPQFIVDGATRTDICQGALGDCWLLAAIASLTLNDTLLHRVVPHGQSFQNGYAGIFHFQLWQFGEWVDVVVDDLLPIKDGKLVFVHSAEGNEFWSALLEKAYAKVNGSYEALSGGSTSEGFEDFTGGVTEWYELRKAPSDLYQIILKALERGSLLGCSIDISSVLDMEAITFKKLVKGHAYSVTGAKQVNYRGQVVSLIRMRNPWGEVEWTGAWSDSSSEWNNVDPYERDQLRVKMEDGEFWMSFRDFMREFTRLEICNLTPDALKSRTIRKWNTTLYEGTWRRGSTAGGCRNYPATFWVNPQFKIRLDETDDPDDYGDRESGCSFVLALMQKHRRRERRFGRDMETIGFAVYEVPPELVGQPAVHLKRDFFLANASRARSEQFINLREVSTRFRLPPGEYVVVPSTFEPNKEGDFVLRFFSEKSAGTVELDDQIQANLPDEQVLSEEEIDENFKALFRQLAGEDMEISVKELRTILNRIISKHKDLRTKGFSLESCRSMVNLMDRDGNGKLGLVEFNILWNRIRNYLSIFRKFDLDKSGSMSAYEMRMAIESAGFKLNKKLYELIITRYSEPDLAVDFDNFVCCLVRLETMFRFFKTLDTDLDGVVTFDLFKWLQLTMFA

[2] = target: T2, cathepsin L (Homo sapiens, UniProt P07711); assay: Inhibition of cathepsin L; conditions: for inhibition at 1 µM: read-out: Cat L % I @ 1 uM
T2 construct: purchased Calbiochem 219402
Protocol: (§1) Additionally,the order of reagents added to the plate was altered because both enzymes are constitutively active. Following inhibitor addition to the plates, appropriate 2× concentrated stock dilutions of the enzyme preparations were made in assay buffer and 100 μl added to each well. The assay was initiated by addition of 100 μl of 2× concentrated stock dilution of substrate in assay buffer.

[3] = target: T3, cathepsin B (Homo sapiens, UniProt P07858); assay: Inhibition of cathepsin B; conditions: for inhibition at 1 µM: read-out: Cat B % I @ 1 uM; for IC50: read-out: Cat B IC50
T3 construct: purchased Calbiochem 219364
Protocol: as §1

[4] = target: T4, α-chymotrypsin (Bos taurus, UniProt P00766); assay: Inhibition of α-chymotrypsin; conditions: for inhibition at 10 µM: read-out: Chymotrypsin % I @ 10 uM
T4 construct: purchased Sigma Chem. Co. C-3142
Summary of the method: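 Enzyme added to inhibitor first, then reaction started with substrate; no calcium activation needed as enzyme is constitutively active. Fluorogenic substrate hydrolysis read every 5 min up to 30 min ([…]).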

[5] = target: T5, thrombin (Homo sapiens, UniProt P00734); assay: Inhibition of thrombin; conditions: 10 uM; for inhibition at 10 µM: read-out: Thrombin % I @ 10 uM
T5 construct: purchased Sigma Chem. Co. T-7009

T2 sequence (P07711 114-288 limits assumed): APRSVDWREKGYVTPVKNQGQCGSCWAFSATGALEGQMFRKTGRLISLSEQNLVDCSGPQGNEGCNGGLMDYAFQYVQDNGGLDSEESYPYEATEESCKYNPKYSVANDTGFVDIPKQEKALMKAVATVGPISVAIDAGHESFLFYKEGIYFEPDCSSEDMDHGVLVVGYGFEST
T2 sequence (P07711 292-333 limits assumed): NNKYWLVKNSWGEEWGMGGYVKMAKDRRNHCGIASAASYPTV

Row | inhibition at 0.1 µM ([1]; Table III, 0.1 uM) | inhibition at 1 µM ([2]; Table III, 1 uM) | inhibition at 1 µM ([3]; Table III, 1 uM) | inhibition at 10 µM ([4]; Table III, 10 uM) | inhibition at 10 µM ([5]; Table III) | IC50 ([1]; Table III) | Structure (SMILES) | other results
1 | 63% | 100% | 78% | 0% | 0% |  | CS(=O)(=O)N[C@H](COCc1ccccc1)C(=O)N[C@@H](Cc1ccccc1)C1N(c2ccccc2)CCN1c1ccccc1 [Compound 132] | 
2 | 82% | 97% | 100% | 4% | 0% | 0.015 µM | CS(=O)(=O)N[C@H](Cc1ccc(OCc2ccccc2)cc1)C(=O)N[C@H](C=O)Cc1ccccc1 [Compound 89] (Ms-[dY](Bn)-Phe-aldehyde) | 
3 |  |  |  |  |  |  | CS(=O)(=O)N[C@H](CC(=O)N1CCc2ccccc2C1)C(=O)N[C@H](C=O)Cc1ccccc1 [Compound 14, 2-THIQ-C(=O)CH2 CH(NHS(=O)2 CH3)C(=O)-Phe--H] | IC50 ([1]; Table II): 0.02 µM; IC50 ([2]; Table II, read-out: Cat L IC50): 0.056 µM; IC50 ([3]; Table II): 0.145 µM; inhibition at 10 µM ([4]; Table II, 10 uM): 11%; inhibition at 10 µM ([5]; Table II): 0%
4 | 93% | 100% | 100% | 1% | 0% | 0.013 µM | CN1CCN(C)C1[C@H](Cc1ccccc1)NC(=O)[C@@H](COCc1ccccc1)NS(C)(=O)=O [Compound 133] | 
5 | 73% | 100% | 64% | 6% | 1% |  | Cc1ccc(S(=O)(=O)N2C[C@@H](C#N)C[C@@H]2C(=O)N[C@H](C=O)Cc2ccccc2)cc1 [Compound 129] | 
6 | 2% | 93% | 22% | 0% | 0% |  | CS(=O)(=O)N[C@H](COCc1ccccc1)C(=O)N[C@@H](C=O)Cc1ccccc1 [Compound 84] | 
7 | 14% | 93% | 0% | 1% | 0% |  | O=C[C@H](Cc1ccccc1)NC(=O)[C@@H](COCc1ccccc1)N1C(=O)c2ccccc2C1=O [Compound 94] | 
8 | 95% | 68% | 98% | 3% | 0% | 0.012 µM | C[C@H](OCc1ccccc1)[C@@H](NS(C)(=O)=O)C(=O)N[C@H](C=O)Cc1ccccc1 [Compound 43] (Ms-[dT](Bn)-Phe-aldehyde) | IC50 ([3]; Table III): 0.058 µM
9 | 74% | 100% | 97% | 0% | 0% | 0.033 µM | CCS(=O)(=O)N[C@H](Cc1ccccc1)C(=O)N[C@H](C=O)Cc1ccccc1 [Compound 60] | 
10 | 31% | 99% | 33% | 8% | 0% |  | CS(=O)(=O)N[C@H](COCc1ccccc1)C(=O)N[C@H](C=NO)Cc1ccccc1 [Compound 118] | 
11 | 37% | 53% | 62% | 0% | 7% | 0.52 µM | CN([C@H](COCc1ccccc1)C(=O)N[C@H](C=O)Cc1ccccc1)S(C)(=O)=O [Compound 83] | 
12 | 89% | 100% | 99% | 1% | 0% | 0.008 µM | CS(=O)(=O)N[C@H](COCc1ccccc1)C(=O)N[C@@H](Cc1ccccc1)C(O)S(=O)(=O)O (stereo partly drawn) [Compound 128] | 
13 | 27% | 91% | 10% | 16% | 0% |  | CC(C)(C)[C@@H](C=O)NC(=O)[C@@H](COCc1ccccc1)NS(C)(=O)=O [Compound 111] (Ms-[dS](Bn)-[Tle]-aldehyde) | 
14 | 5% | 16% | 2% | 6% | 0% |  | CS(=O)(=O)N[C@H](COCc1ccccc1)C(=O)N[C@H]1CCCCNC1=O [Compound 126] | 
15 | 93% | 100% | 100% | 0% | 10% | 0.028 µM | O=C[C@H](Cc1ccccc1)NC(=O)[C@@H](COCc1ccccc1)NS(=O)(=O)c1ccc2ccccc2c1 [Compound 52] | IC50 ([3]; Table III): 0.004 µM
16 | 59% | 98% | 70% | 0% | 0% | 0.04 µM | CS(=O)(=O)N[C@H](COCc1ccccc1)C(=O)N[C@H](C=O)Cc1ccccn1 [Compound 109] (Ms-[dS](Bn)-[2Pal]-aldehyde) | 
17 | 47% | 93% | 99% | 8% | 1% | 1 µM | CN(Cc1ccccc1)C(=O)CC[C@@H](NS(C)(=O)=O)C(=O)N[C@H](C=O)Cc1ccccc1 [Compound 79] | 
18 |  |  |  |  |  | 0.025 µM | CS(=O)(=O)NC(CCSCc1ccccc1)C(=O)N[C@H](C=O)Cc1ccccc1 (single isomer, unassigned) [Compound 108] | Calpain % I @ 0.1 uM ([1]; Table III, 0.1 uM): 83%; Cat L % I @ 1 uM ([2]; Table III, 1 uM): 100%; Cat B % I @ 1 uM ([3]; Table III, 1 uM): 96%; Chymotrypsin % I @ 10 uM ([4]; Table III, 10 uM): 0%; Thrombin % I @ 10 uM ([5]; Table III): 0%
19 | 66% | 100% | 96% | 13% | 0% | 0.062 µM | CS(=O)(=O)N[C@@H](Cc1cccs1)C(=O)N[C@H](C=O)Cc1ccccc1 [Compound 99] (Ms-[2Thi]-Phe-aldehyde) | 
20 | 25% | 100% | 98% | 0% | 0% | 0.072 µM | O=C[C@H](Cc1ccccc1)NC(=O)[C@@H](COCc1ccccc1)NS(=O)(=O)N1CCOCC1 [Compound 53] | 
21 | 63% | 73% | 69% | 0% | 7% | 0.072 µM | O=C[C@H](Cc1ccccc1)NC(=O)[C@H]1CCCN1S(=O)(=O)Cc1ccccc1 [Compound 102] | 

Row | Structure (SMILES) | inhibition at 0.1 µM ([1]; Table III, 0.1 uM) | inhibition at 1 µM ([2]; Table III, 1 uM) | inhibition at 1 µM ([3]; Table III, 1 uM) | inhibition at 10 µM ([4]; Table III, 10 uM) | inhibition at 10 µM ([5]; Table III) | IC50 ([1]; Table III) | other results
22 | CCS(=O)(=O)N[C@H](COCc1ccccc1)C(=O)N[C@H](C=O)Cc1ccccc1 [Compound 50] | 95% | 98% | 99% |  | 9% | 0.012 µM | inhibition at 10 µM [4]: 15%
